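Five concentrations, 48 hours, 96-well plates. TGI: concentration producing complete growth inhibition.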
The molecules below were run on SR leukemia (assay: DTP human tumour cell line panel, 48 h).
Work on `NC(N)=N/N=C/c1c(-c2cccc([N+](=O)[O-])c2)nc2n1CCS2` yielded a TGI of 34.9 µM.
`Cc1ccc(-c2c3nc(c(-c4ccc(C)cc4)c4ccc([nH]4)c(-c4ccc(OCC5COC(C)(C)O5)cc4)c4nc(c(-c5ccc(C)cc5)c5ccc2[nH]5)C=C4)C=C3)cc1` (stereo unspecified) was tested, and the TGI was > 31.6 µM.
With `c1ccc(CSP234N5CCN2CCN3CCN4CC5)c(CSP234N5CCN2CCN3CCN4CC5)c1` the TGI was > 100 µM.
`O=c1[nH]c(Nc2nc3ccccc3[nH]2)nc2c1CCC2` was tested, and the TGI was > 100 µM.
For `Cc1nn(C(=O)Cc2ccccc2)c2c1C(c1ccc(N(C)C)cc1)SC(N)=N2` (stereo unspecified), the TGI was > 100 µM.
With `CCOP(=O)(O)C1C(CO)OC(n2ccc(=O)[nH]c2=O)C1O` (stereo unspecified) the TGI was > 100 µM.
In the case of `O=C1NCCCNCCCNCCCNC(=O)c2cccc1n2`, the TGI was > 100 µM.
`CSC1=N/C(=C\c2ccccc2)C(=O)N1CN1CCCCC1` was tested, and the TGI was > 100 µM.
Molecule `CN(C)/C=N/S(=O)(=O)c1nn2c(C=O)c(-c3ccc(Cl)cc3)nc2s1` has a TGI of 3.4 µM.
In the case of `COC1(OC)CC(CO)(CNc2nc(N)nc(Cl)c2/C=N\O)C1`, the TGI was > 100 µM.
In the case of `CCOC(=O)C(Cc1cn(S(=O)(=O)c2ccccc2)c2ccccc12)(NC(C)=O)C(=O)OCC`, the TGI was 69.8 µM.
Molecule `Cc1ccc2c(c1)C1(C)OC(C=CC1=O)O2` (stereo unspecified) has a TGI of 1.09 µM.

Each molecule was assayed on SK-OV-3 ovarian (assay: DTP human tumour cell line panel, 48 h).
In the case of `O=c1c2cc(S(=O)(=O)O)ccc2nc(COc2ccc(Oc3ccc(Cl)cc3Cl)cc2)n1-c1ccc(Cl)cc1Oc1c(Cl)cccc1Cl`, the TGI was 63.2 µM.
Molecule `C=C(CC[C@@H](C)[C@H]1CC[C@@]2(C)C3=C(CC[C@]12C)[C@@]1(C)CC[C@H](O)[C@@H](C)C1CC3)C(C)C` (stereo partly specified) has a TGI of 2.79 µM.
With `O=C1O/C(=C(/Cl)c2cccc3ccccc23)c2ccccc21` the TGI was > 100 µM.
In the case of `COc1ccc(N2C(=O)c3cc(C)cnc3S2(=O)=O)cc1`, the TGI was > 100 µM.
`CC(=O)OC1(C)C=CC(=O)C=C1` was tested, and the TGI was > 100 µM.
Molecule `COc1cc(OC)c2c(=O)c(OC)c(-c3ccc4c(c3)OCO4)oc2c1` has a TGI of 71.7 µM.
`CC1(C)CC(=O)C(/C=N/c2nc(-c3ccccc3)cs2)=C(O)C1` was tested, and the TGI was > 100 µM.
With `N#Cc1nc(C2=C(Cl)c3ccccc3OC2)[nH]c1C#N` the TGI was > 100 µM.
In the case of `O=C1C=CC=C/C1=C1\N=C(c2ccccc2OCC(=O)c2ccc(Br)cc2)SS1`, the TGI was > 100 µM.
`N#Cc1c(-c2ccccc2)cc(Nc2cccc(C(F)(F)F)c2)n2c1nc1ccccc12` gave a TGI of 8.73 µM.
For `COc1ccc(CCN2CCN(CCc3ccc(OC)cc3)CC2)cc1`, the TGI was > 100 µM.
`CCn1c2ccccc2n2c(=O)c3c(c(C#N)c12)CCCC3` was tested, and the TGI was > 100 µM.
For `O=c1[nH]c(Nc2nc3ccccc3[nH]2)nc2c1CCC2`, the TGI was > 100 µM.
In the case of `Cc1nn(C(=O)Cc2ccccc2)c2c1C(c1ccc(N(C)C)cc1)SC(N)=N2` (stereo unspecified), the TGI was > 100 µM.
In the case of `O=C1NCCCNCCCNCCCNC(=O)c2cccc1n2`, the TGI was > 100 µM.
`CSC1=N/C(=C\c2ccccc2)C(=O)N1CN1CCCCC1` was tested, and the TGI was > 100 µM.
Molecule `CN(C)/C=N/S(=O)(=O)c1nn2c(C=O)c(-c3ccc(Cl)cc3)nc2s1` has a TGI of 29.5 µM.
In the case of `COc1ccc(C2=Nn3c(nnc(Cc4ccc(Cl)cc4)c3=O)SC2)cc1`, the TGI was > 100 µM.
For `Cc1ccc2c(c1)C1(C)OC(C=CC1=O)O2` (stereo unspecified), the TGI was 12 µM.

These molecules were tested on T-47D breast (assay: DTP human tumour cell line panel, 48 h).
`O=c1c2cc(S(=O)(=O)O)ccc2nc(COc2ccc(Oc3ccc(Cl)cc3Cl)cc2)n1-c1ccc(Cl)cc1Oc1c(Cl)cccc1Cl` was tested, and the TGI was > 100 µM.
`CC(=O)OCCOCn1cnc2c(Cl)nc(Cl)nc21` was tested, and the TGI was 25.6 µM.
`COc1cc(OC)c2c(=O)c(OC)c(-c3ccc4c(c3)OCO4)oc2c1` was tested, and the TGI was > 100 µM.
In the case of `CC1(C)CC(=O)C(/C=N/c2nc(-c3ccccc3)cs2)=C(O)C1`, the TGI was > 100 µM.
`NC(N)=N/N=C/c1c(-c2cccc([N+](=O)[O-])c2)nc2n1CCS2` was tested, and the TGI was 26.1 µM.
With `Cn1c(=O)c2[nH]c(CCCCC(=O)O)nc2n(C)c1=O` the TGI was > 100 µM.
For `O=C1C=CC=C/C1=C1\N=C(c2ccccc2OCC(=O)c2ccc(Br)cc2)SS1`, the TGI was > 100 µM.
For `Cc1ccc(-c2c3nc(c(-c4ccc(C)cc4)c4ccc([nH]4)c(-c4ccc(OCC5COC(C)(C)O5)cc4)c4nc(c(-c5ccc(C)cc5)c5ccc2[nH]5)C=C4)C=C3)cc1` (stereo unspecified), the TGI was > 31.6 µM.
Work on `N#Cc1c(-c2ccccc2)cc(Nc2cccc(C(F)(F)F)c2)n2c1nc1ccccc12` yielded a TGI of 21.1 µM.
In the case of `COc1ccc(CCN2CCN(CCc3ccc(OC)cc3)CC2)cc1`, the TGI was > 100 µM.
With `CCn1c2ccccc2n2c(=O)c3c(c(C#N)c12)CCCC3` the TGI was > 100 µM.
With `c1ccc(CSP234N5CCN2CCN3CCN4CC5)c(CSP234N5CCN2CCN3CCN4CC5)c1` the TGI was > 100 µM.
In the case of `Cc1nn(C(=O)Cc2ccccc2)c2c1C(c1ccc(N(C)C)cc1)SC(N)=N2` (stereo unspecified), the TGI was > 100 µM.
For `CCOP(=O)(O)C1C(CO)OC(n2ccc(=O)[nH]c2=O)C1O` (stereo unspecified), the TGI was > 100 µM.
With `NC(=S)Nc1ccc(S(=O)(=O)Nc2ccc(S(N)(=O)=O)cc2)cc1` the TGI was > 100 µM.
`CN(C)/C=N/S(=O)(=O)c1nn2c(C=O)c(-c3ccc(Cl)cc3)nc2s1` showed a TGI of 3.36 µM.
`COc1ccc(C2=Nn3c(nnc(Cc4ccc(Cl)cc4)c3=O)SC2)cc1` was tested, and the TGI was > 100 µM.
`Cc1ccc2c(c1)C1(C)OC(C=CC1=O)O2` (stereo unspecified) gave a TGI of 1.65 µM.

These molecules were tested on MOLT-4 leukemia (assay: DTP human tumour cell line panel, 48 h).
With `O=c1c2cc(S(=O)(=O)O)ccc2nc(COc2ccc(Oc3ccc(Cl)cc3Cl)cc2)n1-c1ccc(Cl)cc1Oc1c(Cl)cccc1Cl` the TGI was > 100 µM.
With `C=C(CC[C@@H](C)[C@H]1CC[C@@]2(C)C3=C(CC[C@]12C)[C@@]1(C)CC[C@H](O)[C@@H](C)C1CC3)C(C)C` (stereo partly specified) the TGI was 2.49 µM.
Molecule `CC(=O)OCCOCn1cnc2c(Cl)nc(Cl)nc21` has a TGI of 40 µM.
With `O=C1O/C(=C(/Cl)c2cccc3ccccc23)c2ccccc21` the TGI was > 100 µM.
For `COc1ccc(N2C(=O)c3cc(C)cnc3S2(=O)=O)cc1`, the TGI was > 100 µM.
`CC(=O)OC1(C)C=CC(=O)C=C1` was tested, and the TGI was > 100 µM.
For `COc1cc(OC)c2c(=O)c(OC)c(-c3ccc4c(c3)OCO4)oc2c1`, the TGI was > 100 µM.

From PubChem BioAssay (NCI)
